Experimental data as given in a melting point compilation (Tetko et al.).

Compound | melting point [°C]
CC(=O)c1c(C)oc(N)c1C#N | 241 to 243
CN(C)CCNC(=O)Cc1ccc(N)cc1 | 145 to 147
Cc1ccc(C2(C(=O)O)CCOCC2)cc1 | 189 to 191
CC(C)C(NC(=O)c1ccccc1F)C(=O)O (configuration not stated) | 116 to 118
CC(Cl)C(=O)Nc1ccc(NC(=O)c2cccs2)cc1 (configuration not stated) | 227 to 229
COc1ccc(NS(=O)(=O)c2ccc(N3CCCCC3)c(N)c2)cc1 | 111 to 113
COC(=O)C(N)c1cccnc1 (configuration not stated) | 61 to 63
COC(=O)c1ccccc1CS(=O)(=O)Cl | 85 to 87
O=C(O)c1sccc1S(=O)(=O)N1CCCC1 | 128 to 130
COc1ccc(NS(=O)(=O)c2cc(N)ccc2N2CCCC2)cc1 | 178 to 182
C=CCN1C(=O)c2ccc(C(=O)O)cc2C1=O | 154 to 156
O=[N+]([O-])c1ccn(C2CCCCC2O)n1 (configuration not stated) | 94 to 96
CC(C)CC(=O)NCCc1ccc(S(N)(=O)=O)s1 | 113 to 115
CCC(=O)NCc1cc(S(N)(=O)=O)ccc1OC | 119 to 121
CC(C)CNC(=O)c1ccc(N)cc1 | 119 to 121
NCc1ccc(N2CCCC(C(N)=O)C2)cc1 (configuration not stated) | 169 to 171
O=C(O)CNC(=O)c1ccc(Cl)c([N+](=O)[O-])c1 | 190 to 192
COc1ccc(OC)c(N2CC(C(=O)O)CC2=O)c1 (configuration not stated) | 100 to 102
CC1C=C(C(=O)O)CC1 (configuration not stated) | 33 to 35
NC(=O)CO | 124 to 126
CN(C)C(=O)c1cccc(S(N)(=O)=O)c1 | 121 to 123
CC(C)CC1CC(C(=O)O)CC(=O)N1 (configuration not stated) | 188 to 190
O=C(Nc1ccc(Cl)cn1)Nc1ccccc1C(=O)O | 245 to 247
Cc1nc(C)c(NC(=O)OC(C)(C)C)s1 | 90 to 92

Compound | melting point [°C]
CN(C)Cc1ccc(C(=N)N)cc1 | 124 to 126
O=C(O)Cc1ccc(NC(=O)C2CC2)cc1 | 189 to 191
COc1ccc(OCCC(=O)O)cc1 | 104 to 106
CC(Cl)C(=O)Nc1ccc(F)c([N+](=O)[O-])c1 (configuration not stated) | 96 to 98
O=C(O)c1ccccc1-n1cnnn1 | 190 to 194
COC(=O)c1n[nH]c(N)n1 | 218 to 222
O=C(O)c1cccc2cccc(-c3cccc4cccc(C(=O)O)c34)c12 | 284 to 286
FC(F)(F)Cn1cnnc1S | 93 to 95
NNC(=O)CCc1ccc(S(=O)(=O)N2CCOCC2)cc1 | 128 to 130
NC(=S)COc1ccc(Cl)cc1 | 107 to 111
COC(=O)c1ccc(N)c(F)c1 | 111 to 113
CCOc1ccc(S(=O)(=O)N2CCNCC2)cc1OCC | 132 to 134
CCOC(=O)NC(=N)N | 104 to 106
CC(NC(=O)CC1CCCCC1)C(=O)O (configuration not stated) | 156 to 158
COc1cc(C=O)c([N+](=O)[O-])cc1OCc1ccccc1 | 130 to 132
CCOc1cccc(C=O)n1 | 55 to 57
CCCc1[nH]nc(C(=O)O)c1[N+](=O)[O-] | 158 to 160
O=c1c(Cl)c(Cl)c1=O | 49 to 51
Cc1c(C(=O)O)oc2c1C(=O)CCC2 | 227 to 229
CCN(c1ccccc1)S(=O)(=O)c1ccc(NN)nc1 | 175 to 177
Cc1n[nH]c(C)c1NC(=O)CCl | 160 to 162
Nc1ccc(S(=O)(=O)N2CCC(Cc3ccccc3)CC2)cc1 | 153 to 155
O=C(Nc1cnccn1)c1ccc(Br)cc1 | 195 to 197
Cn1ncc(Cl)c(Cl)c1=O | 87 to 89

Compound | melting point [°C]
O=C(O)CCCCc1ccc(Cl)cc1 | 64 to 66
CC1CCC(N)(C(=O)O)CC1 (configuration not stated) | 200 to 202
O=c1c2ccccc2nnn1CO | 133 to 135
Clc1cc(SCc2ccccc2)ncn1 | 71 to 73
CCN(CC)Cc1csc(N)n1 | 64 to 66
CC(=O)c1nnn(-c2cccc3ncccc23)c1C | 116 to 118
COc1ccccc1C(N)C(=O)O (configuration not stated) | 169 to 171
CC1CC(C)CN(C(=O)c2ccccc2N)C1 (configuration not stated) | 97 to 99
Brc1ccc(OCCc2ccccc2)cc1 | 49 to 51
COC(=O)CC(=O)c1ccncc1 | 70 to 72
O=[N+]([O-])c1ccc(S(=O)(=O)Cl)c(C(F)(F)F)c1 | 78 to 80
CC(=O)Nc1nc(CCl)cs1 | 159 to 161
O=C(Nc1ccc(C(=O)O)c(O)c1)c1cc(F)cc(F)c1 | 269 to 271
O=C(O)CCNC(=O)N1CCc2ccccc2C1 | 144 to 146
CC(C)(C)OC(=O)c1cc(C(=O)O)nn1-c1ccccc1 | 259 to 261
Cc1nnc2[nH]nc(N)c2c1C | 264 to 266
COc1cc(S(=O)(=O)Cl)c(Cl)cc1C(=O)O | 159 to 161
C=CC(=O)Nc1cccc(C(F)(F)F)c1 | 79 to 81
COCC(C)n1cc(C(=O)O)c(C)n1 (configuration not stated) | 114 to 116
CCCn1c(N)c(NCCOC)c(=O)[nH]c1=O | 193 to 195
CC(=O)c1oc2ccccc2c1NC(=O)C(C)Cl (configuration not stated) | 105 to 107
COc1cc(C=O)ccc1OCc1cccs1 | 79 to 81
CC(C)Nc1ccc(Br)cn1 | 69 to 71
COc1ccc(Cn2[nH]ccc2=N)c(OC)c1 | 76 to 78

Compound | melting point [°C]
Cc1nc2sccn2c1C(N)=S | 232 to 234
CC(C)Oc1ccc(NS(=O)(=O)CC(=O)O)cc1 | 116 to 118
NC(Cc1ccccc1)CN1CCOCC1 (configuration not stated) | 54 to 56
O=C(O)CCS(=O)(=O)c1ccc(Br)cc1 | 151 to 153
Nc1ccc(-c2nccn2C(F)F)cc1 | 84 to 86
COc1cc(N)ccc1S(N)(=O)=O | 241 to 243
Cc1ccc(CN2CC(C(=O)O)CC2=O)cc1 (configuration not stated) | 152 to 156
COC(=O)C(CO)NC(=O)C1CCCCC1 (configuration not stated) | 109 to 111
O=C(O)CCCN1C(=S)CSC1=S | 122 to 124
O=C(O)CONS(=O)(=O)c1ccc(F)cc1 | 168 to 170
N#CC1=C(C(=O)O)CCC1 | 108 to 110
COc1ccc(C)cc1NCCCC(=O)O | 99 to 101
CC1=CC(=O)N(c2ccc(C(=O)O)cc2)C1=O | 201 to 203
CCc1cccc(CC)c1-n1ccnc1 | 74 to 76
NS(=O)(=O)c1ccc([N+](=O)[O-])s1 | 139 to 141
CS(=O)(=O)N1CCCC1C#N (configuration not stated) | 62 to 64
NC(=S)c1ccc(NC(=O)C2CC2)cc1 | 179 to 181
COc1ccc(C=O)cc1OCC1CC1 | 68 to 70
O=C(CCCl)Nc1ccc(F)cc1 | 109 to 111
COc1ncccc1C(N)=O | 130 to 132
CC(=O)NC(CC(=O)O)c1ccc(F)cc1F (configuration not stated) | 149 to 151

The next lines start with the values.

melting point [°C] | Compound
203 to 205 | O=c1nc(S)[nH]nc1-c1cc(Cl)sc1Cl
294 to 296 | Cc1ccc(C(=O)O)cc1NC(=O)Cc1ccncc1
188 to 190 | CN1C(=O)CC(C(N)=O)C1c1cccc(Cl)c1 (configuration not stated)
73 to 75 | COC(=O)c1cc(Br)cc(N)c1Cl
150 to 152 | O=C1CCC(Cc2ccc(Cl)cc2)C(=O)N1 (configuration not stated)
125 to 127 | NC(=O)Cc1csc(-c2ccco2)n1
299 to 301 | COc1cc(OC)c2ncc(C(=O)O)c(O)c2c1
119 to 121 | O=C1CCCc2cc(Br)ccc2N1
127 to 129 | CC(=O)N(c1ccc(F)cc1)c1nc(CCl)cs1
163 to 165 | Cc1c(C(=O)O)nnn1-c1ccc(Br)cc1Cl
184 to 186 | O=C(O)Cc1c[nH]c2cccc(Br)c12
178 to 180 | COc1cc(OC)cc(-c2nnc(S)n2N)c1
119 to 121 | COc1ccc2[nH]c(C)nc2c1
278 to 280 | O=C(O)Cc1cc2ccccc2[nH]c1=O
117 to 119 | Clc1nncc2ccoc12
82 to 84 | COC(=O)c1cc2ccccc2nc1Cl
174 to 176 | CC(=O)c1sc2nc(C)cc(C)c2c1N
200 to 202 | Sc1nnc(-c2ccccc2Br)o1
136 to 138 | COc1ccc2nc(Cl)ccc2c1S(=O)(=O)Cl
144 to 146 | Cc1cc(C2(C)NC(=O)NC2=O)c(C)o1 (configuration not stated)
219 to 221 | CC1CN(c2ccc(C(=O)O)cn2)CC(C)O1 (configuration not stated)
123 to 125 | O=Cc1ccccc1OCc1cn2ccccc2n1
62 to 64 | Cc1ccc(C)c(-n2ncc(N)c2C)c1
87 to 89 | O=C(O)C1CCOc2ccccc21 (configuration not stated)
199 to 201 | c1n[nH]c2cc3c(cc12)OCO3

melting point [°C] | Compound
201 to 204 | O=c1ccc(-c2ccccc2)n[nH]1
151 to 153 | O=C(O)Cc1coc2cc3c(cc12)CCC3
359 to 361 | O=S(=O)(O)c1ccc2[nH]cnc2c1
153 to 155 | Cc1nc2scc(C)n2c1C=O
142 to 144 | NNC(=O)c1ccc2c(c1)OCCO2
79 to 81 | Cc1ccc(C)c(N2C(=O)C=CC2=O)c1
188 to 192 | CS(=O)(=O)c1nc2ccccc2[nH]1
192 to 194 | O=C1C2C3C=CC(C3)C2C(=O)N1c1cccc(Br)c1 (configuration not stated)
195 to 197 | COc1ncc(F)c(O)n1
67 to 69 | Cc1cc2c(c(C)c1Cl)C(=O)CCO2
246 to 248 | COc1ccc(C(=O)O)cc1N1CCNC1=O
327 to 329 | O=c1[nH]cnc2cc(-c3ccc(Cl)cc3)sc12
203 to 205 | Nc1ccc(-c2nnc[nH]2)cc1
186 to 188 | Cc1ccc(N)cc1S(=O)(=O)N1CCOCC1
203 to 205 | Cc1cc(N)n(-c2nc3ccccc3[nH]2)n1
200 to 202 | O=C(O)Cc1csc(NC(=O)Cc2cccs2)n1
163 to 165 | Nc1ccc2c(c1)C(=O)N(CC1CC1)C2=O
229 to 231 | COc1cc(C(=O)O)cc(NC(C)=O)c1OC
209 to 211 | COc1ccc2cc(C(=O)O)c(C)nc2c1
69 to 71 | O=C(O)CCCc1ccc(Cl)c(Cl)c1
354 to 356 | O=C(O)c1ccc2c(=O)n3c(nc2c1)CCC3
205 to 207 | O=C1CCc2cc(S(=O)(=O)Cl)ccc2N1
84 to 86 | Cc1nc(-c2ccc(S(=O)(=O)Cl)cc2)co1
168 to 170 | Nc1ccc(CN2C(=O)CNC2=O)cc1
